Experimental data: patent US20200046641A1, “LIPOSOMES FOR THE TREATMENT OF OCULAR DISEASES” (TDC Technology Dedicated to Care srl, priority 2018, published 2020)

Test system: chorioallantoic membrane (CAM) of 10 days embryonated eggs
Assay: Ocular irritation by HET CAM test
Parameters: species or system hen
Conditions: 0.3 ml applied on CAM; bleeding, vasoconstriction, clotting
Text: The in vitro test described in the present example has been carried out in order to evaluate if the ocular topical administration of the liposomes could cause irritation to the eye. To such purpose, the in vitro HET CAM test as described in […]-Recommended Test Method Protocol has been carried out: Hen's Egg Test-Chorioallantoic Membrane (HET-CAM) Test Method. The HET CAM test has been carried out by observing the irritation effects (bleeding, vasoconstriction and clotting) induced on the chorioallantoic membrane (CAM) of 10 days embryonated eggs by applying 0.3 ml of liposomes under test and calculating the ocular irritation index (“OII”) according to the formula described in Table 6. [table] The liposomes under examination in the present test are F1 and F2 liposomes. By means of the same method, the following controls have been also tested: SDS 1% (positive control with slow irritation), 0.1 N NaOH (positive control with fast irritation) and NaCl 0.9% (negative control). The embryonated eggs for this test have been obtained by the […]. farm, Tarragona, Spain. The eggs are kept at a temperature of 12±1° C. for at least 24 hours before placing them into the incubator at controlled temperature (37.8° C.) and humidity (50-60%) during the incubation days. The data have been analyzed as mean ±standard deviation at the moment when the injury occurred (n=3/group).

SMILES: [Na+].[OH-] [0.1 N NaOH, NaOH]
- Irritating effects (HET CAM): irritating effects

SMILES: CCCCCCCCCCCCOS(=O)(=O)[O-].[Na+] [SDS 1%, SDS]
- Irritating effects (HET CAM): irritating effects
